row,melting point [°C],Compound
1,125 to 127,"CCCCOC(=O)Nc1nc2ccccc2c2c1nc(COCC)n2CC(C)(C)NS(C)(=O)=O [Example 7, Butyl 2-Ethoxymethyl-1-{2-methyl-2-[(methylsulfonyl)amino]propyl}-1H-imidazo[4,5-c]quinolin-4-ylcarbamate]"
2,177 to 179,"CCCOC(=O)Nc1nc2ccccc2c2c1nc(COCC)n2CC(C)(C)NS(C)(=O)=O [Example 6, Propyl 2-Ethoxymethyl-1-{2-methyl-2-[(methylsulfonyl)amino]propyl}-1H-imidazo[4,5-c]quinolin-4-ylcarbamate]"

# Second part, the compound before the results:
row,Compound,melting point [°C]
1,"CCOCc1nc2c(NC(C)=O)nc3ccccc3c2n1CC(C)(C)NS(C)(=O)=O [Example 1, N-(2-Ethoxymethyl-1-{2-methyl-2-[(methylsulfonyl)amino]propyl}-1H-imidazo[4,5-c]quinolin-4-yl)acetamide]",75 to 76
2,"CCOCc1nc2c(NC(=O)c3ccccc3)nc3ccccc3c2n1CC(C)(C)NS(C)(=O)=O [Example 2, N-(2-Ethoxymethyl-1-{2-methyl-2-[(methylsulfonyl)amino]propyl}-1H-imidazo[4,5-c]quinolin-4-yl)benzamide]",80 to 83
3,CCOCc1nc2c(NC(=O)C(C)C)nc3ccccc3c2n1CC(C)(C)NS(C)(=O)=O [Example 3],67 to 70
4,"CCOCc1nc2c(NC(=O)OCC)nc3ccccc3c2n1CC(C)(C)NS(C)(=O)=O [Example 5, Ethyl 2-Ethoxymethyl-1-{2-methyl-2-[(methylsulfonyl)amino]propyl}-1H-imidazo[4,5-c]quinolin-4-ylcarbamate]",163 to 165

# Reference: patent US8476292B2, “Amide and carbamate derivatives of N-{2-[4-amino-2-(ethoxymethyl)-1H-imidazo[4,5-c] quinolin-1-Yl]-1,1-dimethylethyl}methanesulfonamide and methods” (3M Innovative Properties Company, priority 2005, dated 2013)
